Patent US5686486A, “4-hydroxy-benzopyran-2-ones and 4-hydroxy-cycloalkyl[b]pyran-2-ones useful to treat retroviral infections” (priority 1995, dated 1997)
pKi: −log10 of the molar value. Values joined by “and” are separate entries in the source; they are usually repeats but may differ in a detail not shown here. Equal entries are not always repeated. Where two headings read alike, the source gives them in different places.

How the values were obtained:
[1] = biological target: T1, HIV-1 protease (Human immunodeficiency virus type 1 group M subtype B, UniProt P04585); test: biochemical
Method: Determination of Ki values utilizes the same materials and equipment employed for percent inhibition studies. Two-fold serial dilutions are made for a given inhibitor from 2, 3 or 4 starting concentrations with a total of 24, 36 or 48 individual inhibitor concentrations. These dilutions are performed utilizing the BioMek robotics system. The assay consists of 10 μL of 40 nM HIV-1 protease, 10 μL of the various inhibitor concentrations, and 20 μL of 200 μM substrate (40 μL total). The reaction is allowed to proceed for 90 min at room temperature, terminated with 40 μL of avidin beads and processed (supra vide). An inhibitor with a known Ki is run in parallel to verify the validity of the assay. The data is processed utilizing a computer program employing a nonlinear least square analysis of the data to generate the Ki values.

[2] = biological target: T1, HIV-1 protease; test: biochemical; conditions: for inhibition at 0.41 µM: read-out: HIV-1 Protease % Inhib, dose 0.410 uM; for inhibition at 1.23 µM: read-out: HIV-1 Protease % Inhib, dose 1.230 uM; for inhibition at 3.7 µM: read-out: HIV-1 Protease % Inhib, dose 3.700 uM; for inhibition at 11 µM: read-out: HIV-1 Protease % Inhib, dose 11.000 uM; for inhibition at 33 µM: read-out: HIV-1 Protease % Inhib, dose 33.000 uM; for inhibition at 100 µM: read-out: HIV-1 Protease % Inhib, dose 100.000 uM; for inhibition at 0.123 µM: read-out: HIV-1 Protease % Inhib, dose 0.123 uM; for inhibition at 0.37 µM: read-out: HIV-1 Protease % Inhib, dose 0.370 uM; for inhibition at 1.1 µM: read-out: HIV-1 Protease % Inhib, dose 1.100 uM; for inhibition at 3.3 µM: read-out: HIV-1 Protease % Inhib, dose 3.300 uM; for inhibition at 10 µM: read-out: HIV-1 Protease % Inhib, dose 10.000 uM; for inhibition at 30 µM: read-out: HIV-1 Protease % Inhib, dose 30.000 uM; for inhibition at 1 µM: read-out: HIV-1 Protease % Inhib, dose 1.000 uM
In short: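 Percent inhibition derived from fluorescent cleavage product separated by filtration after streptavidin-bead capture of intact biotin/FITC substrate. Reaction: enzyme (10 μl, 0.1 μM stock) with substrate (20 μl, 0.2 μM stock) and compound, 1 h at room temperature in dark, pH 5.5 acetate buffer with 1.0 M NaCl and 0.05% NP-40.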

| Compound | pKi ([1]; read-out: HIV-1 FITC KI) | inhibition at 0.41 µM [2] [%] | inhibition at 1.23 µM [2] [%] | inhibition at 3.7 µM [2] [%] | inhibition at 11 µM [2] [%] | inhibition at 33 µM [2] [%] | inhibition at 100 µM [2] [%] | inhibition at 0.123 µM [2] [%] | inhibition at 0.37 µM [2] [%] | inhibition at 1.1 µM [2] [%] | inhibition at 3.3 µM [2] [%] | inhibition at 10 µM [2] [%] | inhibition at 30 µM [2] [%] | pKi ([1]; HIV-1 FITC KI) | inhibition at 1 µM [2] [%] |
| --- | --- | --- | --- | --- | --- | --- | --- | --- | --- | --- | --- | --- | --- | --- | --- |
| O=C(Nc1cccc(C(c2c(O)c3c(oc2=O)CCCCCC3)C2CC2)c1)OCc1ccccc1 (stereo not drawn) [Example 119, Carbamic acid, [3-[cyclopropyl(5,6,7,8,9,10-hexahydro-4-hydroxy-2-oxo-2H-cycloocta[b]pyran-3-yl)methyl]phenyl]-, phenylmethyl ester] | 6.59 | 27.5 | 55.4 | 82.5 | 97.7 | 96.8 | 101 | – | – | – | – | – | – | – | – |
| CC(C)N=C(Nc1cccc(C(c2c(O)c3c(oc2=O)CCCCCC3)C2CC2)c1)NC(C)C (stereo not drawn) [Example 120, N-(3-(cyclopropyl-(4-hydroxy-2-oxo-5,6,7,8,9,10-hexahydro-2H-cycloocta[b]pyran-3-yl)-methyl)-phenyl)-N',N"-diisopropyl-guanidine] | 6.01 | < 10 | 22.2 | 54.6 | 80.7 | 101 | 106 | – | – | – | – | – | – | – | – |
| O=c1oc2c(c(O)c1C(c1ccccc1)C1CC1)CCCCCC2CC1CC1 (stereo not drawn) [Example 121, 10-Cyclopropylmethyl-3-(cyclopropyl-phenyl-methyl)-4-hydroxy-5,6,7,8,9,10-hexahydro-cycloocta[b]pyran-2-one] | 7.62 | – | – | – | – | – | – | 37.1 | 74.9 | 99.5 | 106 | 108 | 109 | – | – |
| CCC(c1ccccc1)c1c(O)c2c(oc1=O)C(Cc1ccccc1)CCCCC2 (stereo not drawn) [Example 122] | 6.76 | 35.1 | 63.5 | 91.7 | 98 | 93.2 | 94.3 | – | – | – | – | – | – | – | – |
| O=c1oc2c(c(O)c1C(C1CC1)C1CC1)CCCCCC2Cc1ccccc1 (stereo not drawn) [Example 123, 10-Benzyl-3-dicyclopropylmethyl-4-hydroxy-5,6,7,8,9,10-hexahydro-cycloocta[b]pyran-2-one] | 6.59 | 23.7 | 59.1 | 82.5 | 88.3 | 83.9 | 78.9 | – | – | – | – | – | – | – | – |
| CCC(c1ccccc1)c1c(O)c2c(oc1=O)C(CC1CC1)CCC2 (stereo not drawn) [Example 124, 8-Cyclopropylmethyl-4-hydroxy-3-(1-phenyl-propyl)-5,6,7,8-tetrahydro-chromen-2-one] | 5.99 | < 10 | 32.4 | 65.6 | 81.6 | 88.2 | 89.4 | – | – | – | – | – | – | – | – |
| O=c1oc2c(c(O)c1C(c1ccccc1)C1CC1)CCCCC2CC1CC1 (stereo not drawn) [Example 125, 9-Cyclopropylmethyl-3-(cyclopropyl-phenyl-methyl)-4-hydroxy-6,7,8,9-tetrahydro-5-H-cyclohepta[b]pyran-2-one] | 7.62 | 101 | 108 | 108 | 108 | 102 | 105 | – | – | – | – | – | – | – | – |
| CCC(c1ccccc1)c1c(O)c2c(oc1=O)C(C)CCCCC2 (stereo not drawn) [Example 126, 4-Hydroxy-10-methyl-3-(1-phenyl-propyl)-5,6,7,8,9,10-hexahydro-cycloocta[b]pyran-2-one] | 6.48 | 25.9 | 59 | 89.8 | 96.7 | 100 | 95 | – | – | – | – | – | – | – | – |
| CCC1CCCCCc2c1oc(=O)c(C(c1ccccc1)C1CC1)c2O (stereo not drawn) [Example 127, 3-(Cyclopropyl-phenyl-methyl)-10-ethyl-4-hydroxy-5,6,7,8,9,10-hexahydro-cycloocta[b]pyran-2-one] | 7.48 | – | – | – | – | – | – | 52.3 | 92.5 | 112 | 115 | 117 | 111 | – | – |
| CCCC1CCCCCc2c1oc(=O)c(C(c1ccccc1)C1CC1)c2O (stereo not drawn) [Example 128, 3-(Cyclopropyl-phenyl-methyl)-4-hydroxy-10-propyl-5,6,7,8,9,10-hexahydro-cycloocta[b]pyran-2-one] | 7.59 | – | – | – | – | – | – | 32.5 | 85.6 | 102 | 112 | 107 | 102 | – | – |
| CCCCC1CCCCCc2c1oc(=O)c(C(c1ccccc1)C1CC1)c2O (stereo not drawn) [Example 129, 10-Butyl-3-(cyclopropyl-phenyl-methyl)4-hydroxy-5,6,7,8,9,10-hexahydro-cycloocta[b]pyran-2-one] | 7.51 | – | – | – | – | – | – | 23.2 | 67.8 | 96.5 | 106 | 117 | 120 | – | – |
| O=c1oc2c(c(O)c1C(c1ccccc1)C1CC1)CCCCCC2CC1CCCCO1 (stereo not drawn) [Example 130, 3-(Cyclopropyl-phenyl-methyl)-4-hydroxy-10-(tetrahydro-pyran-2-ylmethyl)-5,6,7,8,9,10-hexahydro-cycloocta[b]pyran-2-one] | 6.92 | – | – | – | – | – | – | – | 14.7 | 54 | 88.6 | 104 | 112 | – | – |
| CC(C)CC1CCCCCc2c1oc(=O)c(C(c1ccccc1)C1CC1)c2O (stereo not drawn) [Example 131, 3-(Cyclopropyl-phenyl-methyl)-4-hydroxy-10-isobutyl-5,6,7,8,9,10-hexahydro-cycloocta[b]pyran-2-one] | 7.52 | – | – | – | – | – | – | 30.7 | 74.2 | 98.7 | 112 | 116 | 106 | – | – |
| CC(C)CCC1CCCCCc2c1oc(=O)c(C(c1ccccc1)C1CC1)c2O (stereo not drawn) [Example 132, 3-(Cyclopropyl-phenylmethyl)-4-hydroxy-10-(3-methyl-butyl)-5,6,7,8,9,10-hexahydro-cycloocta[b]pyran-2-one] | 7.30 | – | – | – | – | – | – | – | 39.5 | 76.2 | 98.1 | 104 | 103 | – | – |
| O=c1oc2c(c(O)c1C(c1ccccc1)C1CC1)CCCCCC2CC1CCOC1 (stereo not drawn) [Example 133, 3-(Cyclopropyl-phenyl-methyl)-4-hydroxy-10-(tetrahydro-furan-3-ylmethyl)-5,6,7,8,9,10-hexahydro-cycloocta[b]pyran-2-one] | 7.92 | – | – | – | – | – | – | 19.1 | 71.2 | 97.9 | 101 | 101 | 99.5 | – | – |
| CCC(O)C1CCCCCc2c1oc(=O)c(C(c1ccccc1)C1CC1)c2O (stereo not drawn) [Example 134, 3-(Cyclopropyl-phenyl-methyl)-4-hydroxy-10-(1-hydroxy-propyl)-5,6,7,8,9,10-hexahydro-cycloocta[b]pyran-2-one] | 7.82 | – | – | – | – | – | – | 54 | 97.7 | 104 | 111 | 111 | 109 | – | – |
| C=CCCC1CCCCc2c1oc(=O)c(C(c1ccccc1)C1CC1)c2O (stereo not drawn) [Example 135, 9-But-3-enyl-3-(cyclopropyl-phenyl-methyl)4-hydroxy-6,7,8,9-tetrahydro-5H-cyclohepta[b]pyran-2-one] | 7.52 | 87.1 | 92.5 | 96.7 | 82.4 | 71.2 | 63.6 | – | – | – | – | – | – | – | – |
| O=c1oc2c(c(O)c1C(Cc1ccccc1)Cc1ccccc1)CCCCCC2 [Example 136, 3-(1-Benzyl-2-phenyl-ethyl)-4-hydroxy-5,6,7,8,9,10-hexahydro-cycloocta[b]pyran-2-one] | 6.97 | 56.6 | 80.1 | 90.1 | 92.4 | 91.6 | 103 | – | – | – | – | – | – | – | – |
| C=CS(=O)(=O)Nc1cccc(C(CC)c2c(O)c3ccccc3oc2=O)c1 (stereo not drawn) [Example 137, Ethenesulfonic acid (3-(1-(4-hydroxy-2-oxo-2H-chromen-3-yl)-propyl)-phenyl)-amide] | – | – | – | – | – | – | 89.1 | – | – | – | – | 62.9 | – | 5.76 and 5.66 | 11.3 |
| CCC(c1cccc(NS(=O)(=O)CC)c1)c1c(O)c2ccccc2oc1=O (stereo not drawn) [Example 138, Ethanesulfonic acid (3-(1-(4-hydroxy-2-oxo-2H-chromen-3-yl)-propyl)-phenyl)-amide] | – | – | – | – | – | – | 99.3 | – | – | – | – | 64.5 | – | 5.63 | 11.9 |
